Laboratory results from patent US9150546B2, “Triazine derivative and pharmaceutical composition comprising the same” (SHIONOGI & CO., LTD., priority 2009, dated 2015).

Target: human P2X3 receptor (Homo sapiens (Human), UniProt P56373)
Assay: P2X3 receptor inhibition, ATP-evoked Fluo-3 fluorescence (FDSS 3000)
Type: cell-based
Conditions: C6BU-1 cell transfected with human P2X3 receptor gene

Sequence of human P2X3 receptor (P56373 whole entry): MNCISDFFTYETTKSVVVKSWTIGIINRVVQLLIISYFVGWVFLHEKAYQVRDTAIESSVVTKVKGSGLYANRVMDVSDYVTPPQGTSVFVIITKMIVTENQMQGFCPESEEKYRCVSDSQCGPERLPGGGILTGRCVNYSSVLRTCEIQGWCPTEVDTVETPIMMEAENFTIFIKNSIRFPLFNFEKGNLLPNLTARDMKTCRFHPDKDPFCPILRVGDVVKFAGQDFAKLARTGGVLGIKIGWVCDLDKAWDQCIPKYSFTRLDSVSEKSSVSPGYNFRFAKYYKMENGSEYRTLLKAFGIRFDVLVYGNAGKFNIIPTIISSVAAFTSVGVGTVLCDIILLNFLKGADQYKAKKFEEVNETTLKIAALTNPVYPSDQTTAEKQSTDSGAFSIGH

| SMILES | IC50 [nM] |
| --- | --- |
| COC(=O)c1ccc(Cn2c(=O)[nH]/c(=N\c3ccc(OC(C)C)c(F)c3)n(Cc3ccc(Cl)cc3)c2=O)cc1 [I-444] | 17 |
| CC(C)Oc1ccc(/N=c2\[nH]c(=O)n(Cc3ccc(C(=O)O)cc3)c(=O)n2Cc2ccc(Cl)cc2)cc1F [I-445] | 8 |
| CCOc1ccc(/N=c2\[nH]c(=O)n(CC(C)(C)C(=O)O)c(=O)n2Cc2ccc(Cl)cc2)cc1Cl [I-446] | 20 |
| COc1ccc(/N=c2\[nH]c(=O)n(CC(C)(C)C(=O)O)c(=O)n2Cc2ccc(Cl)cc2)cc1C [I-447] | 279 |
| CC(C)(Cn1c(=O)[nH]/c(=N\c2cccc(OC(F)F)c2)n(Cc2ccc(Cl)cc2)c1=O)C(=O)O [I-448] | 388 |
| COC(=O)c1cccc(Cn2c(=O)[nH]/c(=N\c3ccc(OC(C)C)c(F)c3)n(Cc3ccc(Cl)cc3)c2=O)c1 [I-450] | 36 |
| CC(C)Oc1ccc(/N=c2\[nH]c(=O)n(Cc3cccc(C(=O)O)c3)c(=O)n2Cc2ccc(Cl)cc2)cc1F [I-451] | 16 |
| COC(=O)[C@H](C)Cn1c(=O)[nH]/c(=N\c2ccc(OC(C)C)c(F)c2)n(Cc2ccc(Cl)cc2)c1=O [I-452] | 3 |
| COC(=O)[C@@H](C)Cn1c(=O)[nH]/c(=N\c2ccc(OC(C)C)c(F)c2)n(Cc2ccc(Cl)cc2)c1=O [I-453] | 5 |
| CCOC(=O)c1ccccc1Cn1c(=O)[nH]/c(=N\c2ccc(OC(C)C)c(F)c2)n(Cc2ccc(Cl)cc2)c1=O [I-454] | 24 |
| CC(C)Oc1ccc(/N=c2\[nH]c(=O)n(C[C@@H](C)C(=O)O)c(=O)n2Cc2ccc(Cl)cc2)cc1F [I-455] | 30 |
| CC(C)Oc1ccc(/N=c2\[nH]c(=O)n(C[C@H](C)C(=O)O)c(=O)n2Cc2ccc(Cl)cc2)cc1F [I-456] | 8 |
| COC(=O)[C@H](C)Cn1c(=O)[nH]/c(=N\c2ccc(OC(C)C)c(Cl)c2)n(Cc2ccc(Cl)cc2)c1=O [I-457] | 3 |
| COC(=O)[C@@H](C)Cn1c(=O)[nH]/c(=N\c2ccc(OC(C)C)c(Cl)c2)n(Cc2ccc(Cl)cc2)c1=O [I-458] | 4 |
| CC(C)Oc1ccc(/N=c2\[nH]c(=O)n(Cc3ccccc3C(=O)O)c(=O)n2Cc2ccc(Cl)cc2)cc1F [I-459] | 39 |
| CC(C)Oc1ccc(/N=c2\[nH]c(=O)n(C[C@@H](C)C(=O)O)c(=O)n2Cc2ccc(Cl)cc2)cc1Cl [I-460] | 16 |
| CC(C)Oc1ccc(/N=c2\[nH]c(=O)n(C[C@H](C)C(=O)O)c(=O)n2Cc2ccc(Cl)cc2)cc1Cl [I-461] | 9 |
| CCOc1ccc(/N=c2\[nH]c(=O)n(CC(C)(C)C(=O)OC)c(=O)n2Cc2ccc(Cl)cc2)cc1C [I-462] | 4 |
| Cc1ccc(/N=c2\[nH]c(=O)n(CC(C)(C)C(=O)O)c(=O)n2Cc2ccc(Cl)cc2)cc1C [I-464] | 564 |
| CCOc1ccc(/N=c2\[nH]c(=O)n(CC(C)(C)C(=O)O)c(=O)n2Cc2ccc(Cl)cc2)cc1C [I-465] | 57 |
| COC(=O)C(C)(C)Cn1c(=O)[nH]/c(=N\c2cccc(Cl)c2)n(Cc2ccc(Cl)cc2)c1=O [I-466] | 37 |
| COC(=O)C(C)(C)Cn1c(=O)[nH]/c(=N\c2cccc(OC(F)(F)F)c2)n(Cc2ccc(Cl)cc2)c1=O [I-467] | 37 |
| CC(C)(Cn1c(=O)[nH]/c(=N\c2cccc(Cl)c2)n(Cc2ccc(Cl)cc2)c1=O)C(=O)O [I-468] | 137 |
| CC(C)(Cn1c(=O)[nH]/c(=N\c2cccc(OC(F)(F)F)c2)n(Cc2ccc(Cl)cc2)c1=O)C(=O)O [I-469] | 101 |
| COC(=O)C(C)(C)Cn1c(=O)[nH]/c(=N\c2ccc3[nH]ccc3c2)n(Cc2ccc(Cl)cc2)c1=O [I-470] | 80 |

| SMILES | IC50 [nM] |
| --- | --- |
| COC(=O)C(C)(C)Cn1c(=O)[nH]/c(=N\c2cccc(C(F)(F)F)c2)n(Cc2ccc(Cl)cc2)c1=O [I-471] | 24 |
| COC(=O)C(C)(C)Cn1c(=O)[nH]/c(=N\c2ccc(OC(C)C)nc2)n(Cc2ccc(Cl)cc2)c1=O [I-473] | 583 |
| COC(=O)C(C)n1c(=O)[nH]/c(=N\c2ccc(OC(C)C)c(F)c2)n(Cc2ccc(Cl)cc2)c1=O (stereo not shown) [I-474] | 14 |
| CC(C)Oc1ccc(/N=c2\[nH]c(=O)n(C(C)C(=O)O)c(=O)n2Cc2ccc(Cl)cc2)cc1F (stereo not shown) [I-475] | 571 |
| CC(C)(Cn1c(=O)[nH]/c(=N\c2cccc(C(F)(F)F)c2)n(Cc2ccc(Cl)cc2)c1=O)C(=O)O [I-476] | 35 |
| CC(C)(Cn1c(=O)[nH]/c(=N\c2ccc(Cl)c(Cl)c2)n(Cc2ccc(Cl)cc2)c1=O)C(=O)O [I-477] | 56 |
| CC(C)(Cn1c(=O)[nH]/c(=N\c2ccc3[nH]ccc3c2)n(Cc2ccc(Cl)cc2)c1=O)C(=O)O [I-478] | 629 |
| COC(=O)[C@H](C)Cn1c(=O)[nH]/c(=N\c2ccc(OC(C)C)cc2)n(Cc2ccc(Cl)cc2)c1=O [I-479] | 7 |
| CCOc1ccc(/N=c2\[nH]c(=O)n(C[C@@H](C)C(=O)OC)c(=O)n2Cc2ccc(Cl)cc2)cc1 [I-480] | 12 |
| CCOc1ccc(/N=c2\[nH]c(=O)n(C[C@@H](C)C(=O)OC)c(=O)n2Cc2ccc(Cl)cc2)cc1C [I-481] | 12 |
| CC(C)Oc1ccc(/N=c2\[nH]c(=O)n(C[C@@H](C)C(=O)O)c(=O)n2Cc2ccc(Cl)cc2)cc1 [I-483] | 100 |
| CCOc1ccc(/N=c2\[nH]c(=O)n(C[C@@H](C)C(=O)O)c(=O)n2Cc2ccc(Cl)cc2)cc1 [I-484] | 290 |
| CCOc1ccc(/N=c2\[nH]c(=O)n(C[C@@H](C)C(=O)O)c(=O)n2Cc2ccc(Cl)cc2)cc1C [I-485] | 198 |
| Cc1cc(/N=c2\[nH]c(=O)n(C[C@@H](C)C(=O)O)c(=O)n2Cc2ccc(Cl)cc2)ccc1OC(C)C [I-486] | 42 |
| CCOc1ccc(/N=c2\[nH]c(=O)n(C[C@@H](C)C(=O)O)c(=O)n2Cc2ccc(Cl)cc2)cc1Cl [I-487] | 27 |
| COC(=O)C(C)(C)Cn1c(=O)[nH]/c(=N\c2ccc3oc(C)nc3c2)n(Cc2ccc(Cl)cc2)c1=O [I-488] | 124 |
| COC(=O)C(C)(C)Cn1c(=O)[nH]/c(=N\c2ccc3oc(C)cc3c2)n(Cc2ccc(Cl)cc2)c1=O [I-489] | 10 |
| COC(=O)C(C)(C)Cn1c(=O)[nH]/c(=N\c2ccc(CN(C)C)c(Cl)c2)n(Cc2ccc(Cl)cc2)c1=O [I-490] | 46 |
| Cc1cc2cc(/N=c3\[nH]c(=O)n(CC(C)(C)C(=O)O)c(=O)n3Cc3ccc(Cl)cc3)ccc2o1 [I-491] | 27 |
| CCn1ccc2cc(/N=c3\[nH]c(=O)n(CC(C)(C)C(=O)OC)c(=O)n3Cc3ccc(Cl)cc3)ccc21 [I-492] | 102 |
| CCn1ccc2cc(/N=c3\[nH]c(=O)n(CC(C)(C)C(=O)O)c(=O)n3Cc3ccc(Cl)cc3)ccc21 [I-493] | 952 |
| COC(=O)C(C)(C)Cn1c(=O)[nH]/c(=N\c2ccc3nc(C)oc3c2)n(Cc2ccc(Cl)cc2)c1=O [I-494] | 34 |
| CN(C)Cc1ccc(/N=c2\[nH]c(=O)n(CC(C)(C)C(=O)O)c(=O)n2Cc2ccc(Cl)cc2)cc1Cl [I-495] | 125 |
| Cc1nc2ccc(/N=c3\[nH]c(=O)n(CC(C)(C)C(=O)O)c(=O)n3Cc3ccc(Cl)cc3)cc2o1 [I-496] | 125 |
| Cc1nc2cc(/N=c3\[nH]c(=O)n(CC(C)(C)C(=O)O)c(=O)n3Cc3ccc(Cl)cc3)ccc2o1 [I-497] | 458 |

| SMILES | IC50 [nM] |
| --- | --- |
| CCOC(=O)CCCn1c(=O)[nH]/c(=N\c2ccc(OC(C)C)c(Cl)c2)n(Cc2ccc(Cl)cc2)c1=O [I-498] | 9 |
| Cc1cc(/N=c2\[nH]c(=O)[nH]c(=O)n2Cc2ccc(Cl)cc2)ccc1OC(C)C [I-499] | 137 |
| CC(C)Oc1ccc(/N=c2\[nH]c(=O)n(CCCC(=O)O)c(=O)n2Cc2ccc(Cl)cc2)cc1Cl [I-500] | 13 |
| Cc1cc2cc(/N=c3\[nH]c(=O)[nH]c(=O)n3Cc3ccc(Cl)cc3)ccc2o1 [I-501] | 191 |
| CCOC(=O)CCCn1c(=O)[nH]/c(=N\c2ccc(OC(C)C)c(C)c2)n(Cc2ccc(Cl)cc2)c1=O [I-502] | 20 |
| Cc1cc(/N=c2\[nH]c(=O)n(CCCC(=O)O)c(=O)n2Cc2ccc(Cl)cc2)ccc1OC(C)C [I-503] | 50 |
| CCOC(=O)CCCn1c(=O)[nH]/c(=N\c2ccc3oc(C)cc3c2)n(Cc2ccc(Cl)cc2)c1=O [I-504] | 15 |
| Cc1cc2cc(/N=c3\[nH]c(=O)n(CCCC(=O)O)c(=O)n3Cc3ccc(Cl)cc3)ccc2o1 [I-505] | 120 |
| COC(=O)C(C)(C)Cn1c(=O)[nH]/c(=N\c2ccc3c(ccn3CC(C)C)c2)n(Cc2ccc(Cl)cc2)c1=O [I-506] | 279 |
| CCCn1ccc2cc(/N=c3\[nH]c(=O)n(CC(C)(C)C(=O)OC)c(=O)n3Cc3ccc(Cl)cc3)ccc21 [I-507] | 301 |
| CC(C)Cn1ccc2cc(/N=c3\[nH]c(=O)n(CC(C)(C)C(=O)O)c(=O)n3Cc3ccc(Cl)cc3)ccc21 [I-508] | 511 |
| CCCn1ccc2cc(/N=c3\[nH]c(=O)n(CC(C)(C)C(=O)O)c(=O)n3Cc3ccc(Cl)cc3)ccc21 [I-509] | 652 |
| CSc1cccc(/N=c2\[nH]c(=O)n(CC(C)(C)C(=O)O)c(=O)n2Cc2ccc(Cl)cc2)c1 [I-510] | 98 |
| COC(=O)[C@@H](C)Cn1c(=O)[nH]/c(=N\c2ccc(OC(C)C)c(F)c2)n(Cc2ccc(C)cc2)c1=O [I-515] | 6 |
| Cc1ccc(Cn2c(=O)n(C[C@H](C)C(=O)O)c(=O)[nH]/c2=N\c2ccc(OC(C)C)c(F)c2)cc1 [I-517] | 15 |
| Cc1ccc(Cn2c(=O)n(C[C@H](C)C(=O)O)c(=O)[nH]/c2=N\c2ccc(OC(C)C)c(Cl)c2)cc1 [I-518] | 7 |
| Cc1ccc(Cn2c(=O)n(CCCC(=O)O)c(=O)[nH]/c2=N\c2ccc(OC(C)C)c(Cl)c2)cc1 [I-519] | 12 |
| Cc1ccc(Cn2c(=O)n(CCCC(=O)O)c(=O)[nH]/c2=N\c2ccc3oc(C)cc3c2)cc1 [I-520] | 80 |
| CCOC(=O)CCCn1c(=O)[nH]/c(=N\c2ccc(OC(C)C)c(C)c2)n(Cc2ccc(C)cc2)c1=O [I-521] | 4 |
| COC(=O)C[C@H](C)n1c(=O)[nH]/c(=N\c2ccc(OC(C)C)c(Cl)c2)n(Cc2ccc(Cl)cc2)c1=O [I-522] | 29 |
| COC(=O)C[C@H](C)n1c(=O)[nH]/c(=N\c2ccc(OC(C)C)c(F)c2)n(Cc2ccc(Cl)cc2)c1=O [I-523] | 72 |
| COC(=O)C[C@H](C)n1c(=O)[nH]/c(=N\c2ccc(OC(C)C)c(C)c2)n(Cc2ccc(Cl)cc2)c1=O [I-524] | 60 |
| Cc1ccc(Cn2c(=O)n(CCCC(=O)O)c(=O)[nH]/c2=N\c2ccc(OC(C)C)c(C)c2)cc1 [I-525] | 54 |
